ChEMBL document CHEMBL3091387, “DPMA, a deoxypodophyllotoxin derivative, induces apoptosis and anti-angiogenesis in non-small cell lung cancer A549 cells” (Bioorg Med Chem Lett, 2013)
Activity calls are given as the source filed them. The rule behind the calls is not given here.

Legend:
A549 [1] = assay: Induction of apoptosis in human A549 cells assessed as nuclear fragmentation dispersed throughout cytoplasm at 1 uM after 36 hrs by DAPI staining-based indirect immunofluorescence assay; assay type: functional, cell-based
A549 [2] = assay: Induction of apoptosis in human A549 cells assessed as cell shrinkage at 1 uM after 36 hrs by DAPI staining-based indirect immunofluorescence assay; assay type: functional
Tubulin (Homo sapiens) = Tubulin (Homo sapiens) (UniProt P68371+Q9H4B7+P0DPH7+P68366+Q13509+Q71U36+P04350+Q3ZCM7+P07437+P68363+Q9BQE3+Q6PEY2+Q13885+Q9BVA1+Q9BUF5); assay: Binding affinity to tubulin in human A549 cells assessed as inhibition of microtubule network formation at 1 uM after 12 to 36 hrs by indirect immunofluorescence assay; assay type: cell-based
A549 [3] = assay: Induction of apoptosis in human A549 cells assessed as nuclear fragmentation at 0.5 to 1 uM after 48 hrs by Hoechst 33258 staining-based phase contrast microscopic analysis; assay type: functional, cell-based
A549 [4] = assay: Induction of apoptosis in human A549 cells assessed as nuclear condensation at 0.5 to 1 uM after 48 hrs by Hoechst 33258 staining-based phase contrast microscopic analysis; assay type: functional, cell-based
A549 [5] = assay: Induction of apoptosis in human A549 cells assessed as cell shrinkage at 0.5 to 1 uM after 48 hrs by Hoechst 33258 staining-based phase contrast microscopic analysis; assay type: functional
A549 [6] = assay: Induction of apoptosis in human A549 cells assessed as late apoptotic cells at 5 uM after 24 hrs by annexin V-FITC/propidium iodide staining-based flow cytometric analysis (reference value: 0.65%); assay type: functional
A549 [7] = assay: Induction of apoptosis in human A549 cells assessed as late apoptotic cells at 1 uM after 24 hrs by annexin V-FITC/propidium iodide staining-based flow cytometric analysis (reference value: 0.65%); assay type: functional
A549 [8] = assay: Induction of apoptosis in human A549 cells assessed as late apoptotic cells at 0.5 uM after 24 hrs by annexin V-FITC/propidium iodide staining-based flow cytometric analysis (reference value: 0.65%); assay type: functional
A549 [9] = assay: Induction of apoptosis in human A549 cells assessed as early apoptotic cells at 5 uM after 24 hrs by annexin V-FITC/propidium iodide staining-based flow cytometric analysis (reference value: 0.18%); assay type: functional
A549 [10] = assay: Induction of apoptosis in human A549 cells assessed as early apoptotic cells at 1 uM after 24 hrs by annexin V-FITC/propidium iodide staining-based flow cytometric analysis (reference value: 0.18%); assay type: functional
A549 [11] = assay: Induction of apoptosis in human A549 cells assessed as early apoptotic cells at 0.5 uM after 24 hrs by annexin V-FITC/propidium iodide staining-based flow cytometric analysis (reference value: 0.18%); assay type: functional
A549 [12] = assay: Induction of apoptosis in human A549 cells assessed as dead cells at 5 uM after 24 hrs by annexin V-FITC/propidium iodide staining-based flow cytometric analysis (reference value: 0.69%); assay type: functional
A549 [13] = assay: Induction of apoptosis in human A549 cells assessed as dead cells at 1 uM after 24 hrs by annexin V-FITC/propidium iodide staining-based flow cytometric analysis (reference value: 0.69%); assay type: functional
A549 [14] = assay: Induction of apoptosis in human A549 cells assessed as dead cells at 0.5 uM after 24 hrs by annexin V-FITC/propidium iodide staining-based flow cytometric analysis (reference value: 0.69%); assay type: functional
A549 [15] = assay: Cytotoxicity against human A549 cells assessed as cell viability at 0.2 to 1 uM by MTT assay; assay type: functional, cell-based; settings: TDE = time-dependent effect
[16] = Cytotoxicity activity human MSC assessed as cell viability at 0.01 to 1 uM after 48 hrs by MTT assay
A549 [17] = assay: Cytotoxicity against human A549 cells assessed as cell viability after 48 hrs by MTT assay; assay type: functional, cell-based
A549 [18] = assay: Induction of apoptosis in human A549 cells after 48 hrs by Hoechst 33258 staining-based phase contrast microscopic analysis; assay type: functional, cell-based
A549 [19] = assay: Induction of apoptosis in human A549 cells at 0.5 to 1 uM by Hoechst 33258 staining-based phase contrast microscopic analysis; assay type: functional, cell-based; settings: TDE = time-dependent effect
A549 [20] = assay: Induction of apoptosis in human A549 cells assessed as increase in apoptotic cells after 24 hrs by annexin V-FITC/propidium iodide staining-based flow cytometric analysis; assay type: functional, cell-based
A549 [21] = assay: Induction of apoptosis in human A549 cells at 0.5 to 5 uM by annexin V-FITC/propidium iodide staining-based flow cytometric analysis; assay type: functional, cell-based; settings: TDE = time-dependent effect
HUVEC = assay: Antiangiogenic activity in HUVEC assessed as inhibition of VEGF-induced tube formation at 0.5 to 1 uM after 12 hrs by phase contrast inverted microscopic analysis; assay type: functional, cell-based; settings: Homo sapiens
A549 [22] = assay: Induction of ROS generation in human A549 cells after 24 hrs by DCFH-DA dye-based laser confocal microscopic analysis; assay type: functional, cell-based
A549 [23] = assay: Downregulation of phosphorylated cdc-2 protein expression in human A549 cells by Western blot analysis; assay type: functional, cell-based; settings: TDE = time-dependent effect
A549 [24] = assay: Upregulation of cdc-2 protein expression in human A549 cells by Western blot analysis; assay type: functional, cell-based; settings: TDE = time-dependent effect
A549 [25] = assay: Upregulation of cyclin B1 protein expression in human A549 cells by Western blot analysis; assay type: functional, cell-based; settings: TDE = time-dependent effect
A549 [26] = assay: Upregulation of p53 protein expression in human A549 cells by Western blot analysis; assay type: functional, cell-based; settings: TDE = time-dependent effect
A549 [27] = assay: Induction of apoptosis in human A549 cells assessed as increase in cleaved caspase-3 protein expression at 1 uM after 24 hrs by immunofluorescence assay; assay type: functional, cell-based
A549 [28] = assay: Induction of apoptosis in human A549 cells assessed as inhibition of Bcl-2 protein expression at 1 uM after 24 hrs by immunofluorescence assay; assay type: functional, cell-based
A549 [29] = assay: Induction of apoptosis in human A549 cells assessed as increase in Bax protein expression at 1 uM after 24 hrs by immunofluorescence assay; assay type: functional, cell-based
A549 [30] = assay: Induction of apoptosis in human A549 cells assessed as nuclear condensation dispersed throughout cytoplasm at 1 uM after 36 hrs by DAPI staining-based indirect immunofluorescence assay; assay type: functional, cell-based

## COc1cc([C@@H]2c3cc4c(cc3C[C@H]3COC(=O)[C@@H]32)OCO4)cc(OC)c1OC(=O)N[C@H](CCSC)C(N)=O
A549 [1]
  Activity: Active
A549 [2]
  Activity: Active
Tubulin (Homo sapiens)
  inhibition: Active
A549 [3]
  Activity: Active
A549 [4]
  Activity: Active
A549 [5]
  Activity: Active
A549 [6]
  Activity: 27.54%
A549 [7]
  Activity: 13.83%
A549 [8]
  Activity: 6.11%
A549 [9]
  Activity: 18.41%
A549 [10]
  Activity: 9.28%
A549 [11]
  Activity: 6.22%
A549 [12]
  Activity: 23.43%
A549 [13]
  Activity: 15.73%
A549 [14]
  Activity: 2.76%
A549 [15]
  Activity: tde
[16]
  Activity: Non-toxic
A549 [17]
  Activity: Dose-dependent effect
A549 [18]
  Activity: Dose-dependent effect
A549 [19]
  Activity: tde
A549 [20]
  Activity: Dose-dependent effect
A549 [21]
  Activity: tde
HUVEC
  inhibition: Active
A549 [22]
  Activity: Dose-dependent effect
A549 [23]
  Activity: tde
A549 [24]
  Activity: tde
A549 [25]
  Activity: tde
A549 [26]
  Activity: tde
A549 [27]
  Activity: Active
A549 [28]
  inhibition: Active
A549 [29]
  Activity: Active
A549 [30]
  Activity: Active
